From publication PMC11547576, “Identification of a New Promising BAG3 Modulator Featuring the Imidazopyridine Scaffold” (Molecules, 2024)

Key:
[1] = molecular target: T1, BAG3 full-length (Homo sapiens, UniProt O95817); assay: SPR assay on BAG3 full-length protein; details: Biacore T200, 0 to 100 µM, 25 °C, 1:1 interaction model, n.b. = no binding; for Kd: read-out: BAG3 FULL KD (µM) ± SD
T1 construct: both the full-length BAG3 protein and its BAG domain; purchased Novus Biologicals (Littleton, CO, USA)
Method: (§1) In this study, we employed SPR experiments to evaluate the interactions between synthesized compounds (1–14) and both the full-length BAG3 protein and its BAG domain. Only the compounds that successfully bound to the full-length BAG3 protein were tested for their interaction with the BAG domain. Protein immobilization was achieved using the amide coupling method, and the compounds were tested at ten different concentrations, ranging from 0 to 100 µM. A known binder of BAG3-BD, LK4 ((Z)-ethyl 2-(5-(3,4-dihydroxybenzylidene)-2,4-dioxothiazolidin-3yl)acetate), was used as a positive control. […] Compound 14 also bound the target but with slightly higher KD values, still within the micromolar range. The three identified compounds were further investigated to understand whether this binding induced an effect on BAG3 protein functions. The KD values reported in Table 1 for the known inhibitor LK4 differ from those in previous studies due to the use of a newer-generation instrument for the SPR experiments. The earlier experiments utilized the Biacore 3000, whereas the current study employed the Biacore T200. While ligand binding was confirmed in both sets of experiments, the slightly different KD values are attributed to the enhanced sensitivity of the Biacore T200.
(§2) Recombinant human BAG3 protein (Bcl2-associated athanogene 3) was sourced from Novus Biologicals (Littleton, CO, USA), while the BAG3 domain (BAG3-BD) was procured from ARETA International S.r.l. (Gerenzano, Italy). We utilized (Z)-ethyl 2-(5-(3,4-dihydroxybenzylidene)-2,4-dioxothiazolidin-3-yl)acetate (LK4), a known BAG3 inhibitor previously identified by our group. Surface Plasmon Resonance (SPR) spectroscopy was employed to assess the affinity of synthesized molecules for BAG3 and BAG-BD using a Biacore T200 optical biosensor equipped with CM5 sensor chips (Cytiva, Marlborough, MA, USA). BAG3 and BAG-BD were immobilized on the CM5 sensor chip using standard amine-coupling protocols. BAG3 protein (0.067 μg/μL in 10 mM CH3COONa, pH 4.5) was immobilized at a flow rate of 10 μL/min, resulting in a density of 14 kRU. The BAG3 domain (0.38 μg/μL in 10 mM CH3COONa, pH 4.5) was immobilized under similar conditions, achieving a density of 4 kRU. For the experiments, BAG3 and BAG-BD surfaces, along with an unmodified reference surface, were prepared for simultaneous analyses.
Compounds 1–14 and LK4 were dissolved to 10 mM in 100% DMSO and then diluted 1:20 (v/v) in PBS-P buffer (0.2 M phosphate buffer, 27 mM KCl, 1.37 M NaCl, 0.5% surfactant P20) to achieve a final DMSO concentration of 5.0%. These compounds were injected in a concentration series (1:2 dilution, 10 different concentrations) ranging from 0 to 100 μM, prepared in 96-well plates. SPR experiments were conducted at 25 °C with a flow rate of 20 μL/min, featuring 90 s of association and 400 s of dissociation monitoring. Changes in mass, reflected as resonance units (RU), were recorded to determine binding responses. KD values were calculated using Biaevaluation software 3.2 by globally fitting the double-referenced association and dissociation data to a 1:1 interaction model. See Supplementary Materials for all the sensorgrams (Figures S43–S50).

[2] = molecular target: T2, BAG3-BD (Homo sapiens, UniProt O95817); assay: SPR assay on BAG domain of BAG3 (BAG3-BD); assay type: binding; details: Biacore T200, 0 to 100 µM, 25 °C, 1:1 interaction model, read-out: BAG DOMAIN KD (µM) ± SD
T2 construct: the BAG3 domain (BAG3-BD) was procured from ARETA International S.r.l; purchased ARETA International S.r.l; (Gerenzano, Italy)
T2 sequence (O95817 421-498 limits assumed): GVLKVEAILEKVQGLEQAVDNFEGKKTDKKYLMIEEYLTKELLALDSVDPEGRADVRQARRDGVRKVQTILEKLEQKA
Method: as §1
as §2, with “For the experiments, BAG3 and BAG-BD surfaces, along with an unmodified reference surface, were prepared for simultaneous analyses.” left out
Compounds 1–14 and LK4 were dissolved to 10 mM in 100% DMSO and then diluted 1:20 (v/v) in PBS-P buffer (0.2 M phosphate buffer, 27 mM KCl, 1.37 M NaCl, 0.5% surfactant P20) to achieve a final DMSO concentration of 5.0%. […] Changes in mass, reflected as resonance units (RU), were recorded to determine binding responses. KD values were calculated using Biaevaluation software 3.2 by globally fitting the double-referenced association and dissociation data to a 1:1 interaction model. […]

[3] = tested on: HeLa cells; assay: MTT cell viability assay on HeLa cells; assay type: cell-based; details: 72 h
Method: Elevated expression levels of BAG3 are strongly associated with signaling pathways in various types of malignant cells; consequently, reducing the activity of this co-chaperone inhibits cell proliferation, triggers apoptosis, and induces cell cycle arrest. To assess the activity of compounds 10, 12, and 14, cytotoxicity assays were performed on HeLa cells, which were chosen for their tendency to overexpress BAG3 proteins. MTT assays were conducted by exposing HeLa cells to different concentrations of the compounds (25, 50, and 100 µM) for 72 h. Additionally, 10% DMSO was used as a positive control, while 0.1% DMSO served as a negative control. […] The next step involved the assessment of the cytotoxicity of the most promising candidate, 10, on healthy cells to determine its safety profile. To achieve this, MTT assays were conducted on HaCat cells over 72 h.
Human cervical carcinoma cell lines (HeLa, kindly donated by Prof. Ornella Moltedo, Department of Pharmacy, University of Salerno) and immortalized human keratinocytes (HaCaT) were cultured in a DMEM/high glucose medium. This medium was supplemented with 10% FBS (v/v), 2 mM/L glutamine, 100 U/mL penicillin, and […] streptomycin. The cells were maintained at 37 °C in a humidified atmosphere with 5% CO2. To ensure logarithmic growth, the cells were sub-cultured every 2 days.
Cell viability was assessed by measuring mitochondrial metabolic activity using a colorimetric assay, which involves the reduction of 3-[4,5-dimethylthiazol-2,5-diphenyl-2H-tetrazolium bromide (MTT) to purple formazan. Stock solutions of compounds 10, 12, and 14 (50 mM in DMSO) were stored at −20 °C in the dark and diluted just before being added to the sterile culture medium. Briefly, HeLa cells (3.5 × 10^3 cells/well) were seeded in triplicate in 96-well plates, and after 24 h, to allow for attachment, the cells were treated with various concentrations of the tested compounds (25, 50 and 100 μM), 0.1% (v/v) DMSO as a negative control, and 10% (v/v) DMSO as a positive control for 72 h. Following treatment, 20 μL of MTT (5 mg/mL in PBS) was added to each well, and the cells were incubated for an additional 3 h at 37 °C. The formazan crystals formed were then dissolved in 100 μL of a buffer containing 50% (v/v) N, N-dimethylformamide and 20% SDS (pH 4.5). Absorbance was measured at 570 nm using a Multiskan™ GO Microplate Spectrophotometer (Thermo Fisher Scientific, Waltham, MA, USA,). […] The IC50 values, representing the concentration causing 50% inhibition of cell survival, were calculated and compared to control cells treated with DMSO using GraphPad Prism 8.0 software through nonlinear regression of dose–response inhibition. Only for compound 10 was the IC50 also assessed on HaCaT cells (5.0 × 10^3 cells/well) after 72 h of treatment.

T1 sequence (O95817 whole entry, the tested form may be a part): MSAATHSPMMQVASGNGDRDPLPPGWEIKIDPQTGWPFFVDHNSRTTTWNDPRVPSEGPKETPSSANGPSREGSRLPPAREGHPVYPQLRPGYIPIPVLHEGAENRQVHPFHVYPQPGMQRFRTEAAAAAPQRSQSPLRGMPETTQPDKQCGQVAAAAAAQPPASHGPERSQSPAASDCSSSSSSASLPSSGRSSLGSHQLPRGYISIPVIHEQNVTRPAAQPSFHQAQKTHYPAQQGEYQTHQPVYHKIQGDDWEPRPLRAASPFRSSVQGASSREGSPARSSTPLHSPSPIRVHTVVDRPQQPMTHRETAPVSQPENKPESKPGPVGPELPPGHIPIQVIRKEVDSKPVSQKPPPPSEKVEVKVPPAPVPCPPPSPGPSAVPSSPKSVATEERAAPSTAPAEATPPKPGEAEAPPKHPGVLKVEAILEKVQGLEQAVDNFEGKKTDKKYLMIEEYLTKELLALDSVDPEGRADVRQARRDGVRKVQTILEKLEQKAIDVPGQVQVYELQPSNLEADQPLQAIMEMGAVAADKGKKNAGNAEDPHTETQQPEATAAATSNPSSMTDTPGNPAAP

| Structure (SMILES) | BAG3 FULL KD (µM) ± SD [1] | also measured |
| --- | --- | --- |
| CCCCNc1c(CC)nc2ccccn12 [Compound 4, N-butyl-2-ethylimidazo[1,2-a]pyridin-3-amine] | n.b. |  |
| Clc1ccc2nc(-c3ccccc3Br)c(Nc3ccc4ccccc4c3)n2c1 [Compound 12, 2-(2-bromophenyl)-6-chloro-N-(naphthalen-2-yl)imidazo[1,2-a]pyridin-3-amine] |  | Kd [2]: 14.7 ± 2.69 µM; Kd [1]: 20.7 ± 0.42 µM; mortality at 25 µM ([3]; Homo sapiens, 25 µM): 40%; mortality at 100 µM ([3]; Homo sapiens): 60%; IC50 ([3]; Homo sapiens, seven concentrations (1 to 100 µM)): 38.9 ± 3.49 µM |
| CCc1nc2ccccn2c1NC1CCCCC1 [Compound 2, N-cyclohexyl-2-ethylimidazo[1,2-a]pyridin-3-amine] | n.b. |  |
| CCc1nc2ccc(Br)cn2c1NC1CCCCC1 [Compound 6, 6-bromo-N-cyclohexyl-2-ethylimidazo[1,2-a]pyridin-3-amine] | n.b. |  |
| CCCCNc1c(-c2ccccc2)nc2ccccn12 [Compound 3, N-butyl-2-phenylimidazo[1,2-a]pyridin-3-amine] | n.b. |  |
| CCc1ccc(-c2nc3cc(Br)ccn3c2Nc2ccc3ccccc3c2)cc1 [Compound 9, 7-bromo-2-(4-ethylphenyl)-N-(naphthalen-2-yl)imidazo[1,2-a]pyridin-3-amine] | n.b. |  |
| COc1ccc(F)c(-c2nc3cc(C)ccn3c2NCc2ccccc2)c1 [Compound 14, N-benzyl-2-(2-fluoro-5-methoxyphenyl)-7-methylimidazo[1,2-a]pyridin-3-amine] |  | Kd [2]: 16.9 ± 5.87 µM; Kd [1]: 76.2 ± 5.44 µM; mortality ([3]; 25 µM): lost its effect; mortality at 100 µM ([3]; Homo sapiens): 50% |
| Brc1ccn2c(Nc3ccc4ccccc4c3)c(-c3ccccc3Br)nc2c1 [Compound 8, 7-bromo-2-(2-bromophenyl)-N-(naphthalen-2-yl)imidazo[1,2-a]pyridin-3-amine] | n.b. |  |
| c1ccc(-c2nc3ccccn3c2NC2CCCCC2)cc1 [Compound 1, N-cyclohexyl-2-phenylimidazo[1,2-a]pyridin-3-amine] | n.b. ^a |  |
| CCOC(=O)CN1C(=O)S/C(=C\c2ccc(O)c(O)c2)C1=O [LK4, (Z)-ethyl 2-(5-(3,4-dihydroxybenzylidene)-2,4-dioxothiazolidin-3yl)acetate, reference compound] |  | Kd [2]: 0.18 ± 0.02 µM; Kd [1]: 19.9 ± 6.58 µM |
| CCc1ccc(-c2nc3cc(Br)ccn3c2NC(C)C)cc1 [Compound 7, 7-bromo-2-(4-ethylphenyl)-N-isopropylimidazo[1,2-a]pyridin-3-amine] | n.b. |  |
| Brc1ccc2nc(-c3ccccc3)c(NC3CCCCC3)n2c1 [Compound 5, 6-bromo-N-cyclohexyl-2-phenylimidazo[1,2-a]pyridin-3-amine] | n.b. |  |
| COc1ccc(Nc2c(-c3cc(OC)ccc3F)nc3cc(C)ccn23)cc1 [Compound 13, 2-(2-fluoro-5-methoxyphenyl)-N-(4-methoxyphenyl)-7-methylimidazo[1,2-a]pyridin-3-amine] | n.b. |  |
| CCc1ccc(-c2nc3ccc(Cl)cn3c2NC(C)C)cc1 [Compound 11, 6-chloro-2-(4-ethylphenyl)-N-isopropylimidazo[1,2-a]pyridin-3-amine] | n.b. |  |
